Assay: mn = molality of the nth substance listed, in mol/kg
Settings: 101 kPa, Liquid; for mass density: Vibrating tube method

CC(C)C[C@H](N)C(=O)O [L-leucine] + O
speed of sound [m/s], Sing-around technique in a fixed-path interferometer
Settings | m1 = 0.01941 | m1 = 0.02155 | m1 = 0.0281 | m1 = 0.03296 | m1 = 0.04083 | m1 = 0.05231 | m1 = 0.06632 | m1 = 0.07033
288.15 K | – | 1468.6 | 1469.5 | 1470.1 | 1471.1 | – | 1474.4 | 1475
298.15 K | 1498.8 | – | 1499.9 | 1500.5 | – | 1502.7 | 1504.4 | –
308.15 K | – | – | – | 1523.2 | 1524.1 | 1525.2 | 1526.7 | 1527.1
318.15 K | – | – | 1539.1 | 1539.5 | 1540.2 | 1541.3 | 1542.6 | 1543

Settings | viscosity [mPa·s]
288.15 K, m1 = 0.01977 | 1.151
288.15 K, m1 = 0.02401 | 1.153
288.15 K, m1 = 0.03189 | 1.158
288.15 K, m1 = 0.04067 | 1.163
288.15 K, m1 = 0.04511 | 1.166
288.15 K, m1 = 0.0503 | 1.169
298.15 K, m1 = 0.02228 | 0.9009
298.15 K, m1 = 0.03694 | 0.9076
298.15 K, m1 = 0.04045 | 0.9094
298.15 K, m1 = 0.05353 | 0.9156
298.15 K, m1 = 0.06724 | 0.9222
298.15 K, m1 = 0.08113 | 0.928
308.15 K, m1 = 0.0193 | 0.7262
308.15 K, m1 = 0.02231 | 0.7271
308.15 K, m1 = 0.03116 | 0.7301
308.15 K, m1 = 0.03988 | 0.7332
308.15 K, m1 = 0.04441 | 0.7347
308.15 K, m1 = 0.05005 | 0.7366
318.15 K, m1 = 0.01898 | 0.6012
318.15 K, m1 = 0.02214 | 0.602
318.15 K, m1 = 0.03098 | 0.6043
318.15 K, m1 = 0.03968 | 0.6064
318.15 K, m1 = 0.04439 | 0.6076
318.15 K, m1 = 0.04995 | 0.6092

CC(C)[C@H](N)C(=O)O [L-valine] + O
speed of sound [m/s], Sing-around technique in a fixed-path interferometer
Settings | m1 = 0.0197 | m1 = 0.03559 | m1 = 0.04365 | m1 = 0.05244 | m1 = 0.0586 | m1 = 0.07142 | m1 = 0.08303
288.15 K | – | 1469.6 | 1470.5 | 1471.4 | 1472 | 1473.4 | 1474.6
298.15 K | – | 1500.1 | 1500.9 | 1501.7 | 1502.3 | 1503.6 | 1504.7
308.15 K | – | 1523 | 1523.8 | 1524.6 | 1525.1 | 1526.3 | 1527.3
318.15 K | 1538.1 | – | 1540 | 1540.7 | 1541.2 | 1542.3 | 1543.2

Settings | viscosity [mPa·s]
288.15 K, m1 = 0.02209 | 1.15
288.15 K, m1 = 0.03342 | 1.157
288.15 K, m1 = 0.04176 | 1.161
288.15 K, m1 = 0.04553 | 1.163
288.15 K, m1 = 0.0505 | 1.166
288.15 K, m1 = 0.05576 | 1.169
298.15 K, m1 = 0.02235 | 0.8987
298.15 K, m1 = 0.03324 | 0.9027
298.15 K, m1 = 0.04271 | 0.9064
298.15 K, m1 = 0.04775 | 0.9082
298.15 K, m1 = 0.05319 | 0.9101
298.15 K, m1 = 0.05741 | 0.9118
308.15 K, m1 = 0.02114 | 0.7258
308.15 K, m1 = 0.03147 | 0.7288
308.15 K, m1 = 0.04157 | 0.7319
308.15 K, m1 = 0.04549 | 0.7331
308.15 K, m1 = 0.04791 | 0.7337
308.15 K, m1 = 0.05464 | 0.7358
318.15 K, m1 = 0.02149 | 0.6014
318.15 K, m1 = 0.03166 | 0.6038
318.15 K, m1 = 0.04179 | 0.6061
318.15 K, m1 = 0.04524 | 0.6068
318.15 K, m1 = 0.0474 | 0.6073
318.15 K, m1 = 0.05407 | 0.609

[Cl][Cd][Cl] [cadmium chloride] + O
Settings | mass density [kg/m3] | speed of sound [m/s] | viscosity [mPa·s]
288.15 K, m1 = 0.1 | 1015.69 | 1479 | 1.144
288.15 K, m1 = 0.5 | 1077.05 | 1484 | 1.223
288.15 K, m1 = 1 | 1149.37 | 1492.8 | 1.334
288.15 K, m1 = 1.5 | 1205.71 | 1496.2 | 1.472
298.15 K, m1 = 0.1 | 1012.89 | 1501.6 | 0.926
298.15 K, m1 = 0.5 | 1072.65 | 1507.2 | 1.036
298.15 K, m1 = 1 | 1140.72 | 1511.4 | 1.16
298.15 K, m1 = 1.5 | 1199.85 | 1514.4 | 1.226
308.15 K, m1 = 0.1 | 1009.59 | 1522.4 | 0.7258
308.15 K, m1 = 0.5 | 1068.5 | 1525.2 | 0.8259
308.15 K, m1 = 1 | 1135.37 | 1527.4 | 0.9138
308.15 K, m1 = 1.5 | 1193.02 | 1530.2 | 0.9824
318.15 K, m1 = 0.1 | 1005.51 | 1538.6 | 0.6097
318.15 K, m1 = 0.5 | 1063.8 | 1541.8 | 0.6739
318.15 K, m1 = 1 | 1129.17 | 1543.2 | 0.7467
318.15 K, m1 = 1.5 | 1186 | 1546.2 | 0.8197

O [water] + [Cl][Cd][Cl]
m2 = 0
Settings | viscosity [mPa·s]
288.15 K | 1.138
298.15 K | 0.8903
308.15 K | 0.7195
318.15 K | 0.5963
